Measurements: US8034574B2, “Screening method for prokinetic agent” (Astellas Pharma Inc., priority 2006, dated 2011)
“Also recorded” adds a separate entry of the source.

Tests used:
[1] = target: T1, human TRPA1 (polypeptide of SEQ ID NO:2) (Homo sapiens, UniProt O75762, K186N/R3C/R58T); test: Intracellular calcium by FLIPR in CHO-K1 cells expressing human TRPA1 (activator screening); type: cell-based; conditions: CHO-K1 cells expressing human TRPA1; FLIPR, Fluo3-AM
T1 construct: expressed in transfected cells; host or cells: CHO-K1 cells, transient transfection of the pcDNA3.1(+) human TRPA1 vector
T1 sequence (O75762 whole entry R3C/R58T/K186N): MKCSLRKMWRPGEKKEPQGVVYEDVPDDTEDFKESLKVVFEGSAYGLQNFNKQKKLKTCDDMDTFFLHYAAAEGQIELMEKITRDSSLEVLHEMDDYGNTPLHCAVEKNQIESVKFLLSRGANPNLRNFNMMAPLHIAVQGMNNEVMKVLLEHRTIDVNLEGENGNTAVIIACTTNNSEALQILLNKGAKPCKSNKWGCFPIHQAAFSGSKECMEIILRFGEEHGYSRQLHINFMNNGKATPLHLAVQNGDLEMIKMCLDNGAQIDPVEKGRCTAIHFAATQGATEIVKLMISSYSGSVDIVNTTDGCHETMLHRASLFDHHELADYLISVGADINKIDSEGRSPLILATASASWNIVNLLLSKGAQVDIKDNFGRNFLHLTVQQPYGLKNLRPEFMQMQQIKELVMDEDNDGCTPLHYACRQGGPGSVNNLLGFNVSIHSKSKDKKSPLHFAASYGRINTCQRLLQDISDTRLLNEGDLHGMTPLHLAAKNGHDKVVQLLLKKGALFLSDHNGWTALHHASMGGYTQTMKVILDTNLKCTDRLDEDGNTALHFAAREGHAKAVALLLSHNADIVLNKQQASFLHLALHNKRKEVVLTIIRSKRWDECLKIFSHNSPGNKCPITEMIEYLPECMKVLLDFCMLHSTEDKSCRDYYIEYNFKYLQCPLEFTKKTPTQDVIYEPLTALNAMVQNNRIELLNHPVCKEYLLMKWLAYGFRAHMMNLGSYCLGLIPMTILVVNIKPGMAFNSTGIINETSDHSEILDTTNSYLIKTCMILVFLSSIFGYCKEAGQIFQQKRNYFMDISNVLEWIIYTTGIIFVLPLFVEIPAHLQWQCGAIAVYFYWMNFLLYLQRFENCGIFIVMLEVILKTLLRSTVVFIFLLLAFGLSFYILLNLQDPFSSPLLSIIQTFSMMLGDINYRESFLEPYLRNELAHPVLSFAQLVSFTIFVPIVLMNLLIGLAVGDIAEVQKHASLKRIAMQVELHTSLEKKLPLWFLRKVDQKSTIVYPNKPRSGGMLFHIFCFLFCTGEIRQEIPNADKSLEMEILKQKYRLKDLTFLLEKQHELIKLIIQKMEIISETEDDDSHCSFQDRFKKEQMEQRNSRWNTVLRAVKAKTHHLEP
Description: To detect the TRPA1 channel activity of a polypeptide consisting of the amino acid sequence shown by SEQ ID NO:2, the expression vector obtained in Example 1 above was transfected to animal cells, whereby the aforementioned protein was expressed.
Various test samples were added to CHO-K1 cells forced to is transiently express TRPA1 by the transfection operation of Example 2 above, and the resulting changes in intracellular calcium concentration were measured using FLIPR (Molecular Device).
To measure the changes in intracellular calcium concentration by FLIPR, the following pre-treatment was performed. First, an assay buffer for adding the fluorescent dye Fluo3-AM (DOJIN) to the cells, or for washing the cells just before performing the FLIPR assay, was prepared. To a solution prepared by adding 20 ml of 1M HEPES (pH 7.4) (Invitrogen) to 1000 ml of HBSS (Invitrogen) (hereinafter, HBSS/HEPES solution), 10 ml of a solution prepared by dissolving 710 mg of probenecid (Sigma) in 5 ml of 1N NaOH and then adding 5 ml of the HBSS/HEPES solution, was added and mixed, and this solution was used as the assay buffer. Next, 50 μg of Fluo3-AM was dissolved in 22 μl of DMSO (DOJIN), and an equal volume of 20% pluronic acid (Molecular Probes) was added and mixed, after which this mixture was added to 10.6 ml of the assay buffer supplemented with 105 μl of fetal bovine serum, whereby a fluorescent dye solution was prepared. […] After this pretreatment was performed, changes in intracellular calcium concentration after addition of the various test samples were measured with the FLIPR.
Compounds that activate a polypeptide consisting of the amino acid sequence shown by SEQ ID NO:2 (activators) were screened for. As an index of activation, calcium inflow in the cells was detected using a calcium-sensitive fluorescent reagent; specifically, the method described in Example 3 was used.

RIN14B cells [2] = test: Channel activity in RIN14B cells using calcium-sensitive fluorescent reagent (FLIPR); type: cell-based, rat; conditions: RIN14B cells, Fluo3-AM
Description: RIN14B cells (5×10^4 cells), wherein the expression of TRPA1 was confirmed in Example 10, were incubated in the presence of a calcium-sensitive fluorescent reagent (Fluo3-AM; DOJINDO) at 37° C. for 1 hour to thereby incorporate the calcium-sensitive fluorescent reagent in the cells, after which the cells were washed with physiological saline to remove the calcium-sensitive fluorescent reagent that had not been incorporated in the cells. To the cells obtained, physiological saline supplemented with allyl isothiocyanate, cinnamic aldehyde, or acrolein was added; the fluorescence emitted by the cells was measured over time. The above-described measurements were performed using an automated fluorescence detection apparatus (FLIPR; Molecular Device). […] Ruthenium Red was added concurrently and a measurement was performed to determine whether or not calcium inflow in the cells was be inhibited.

mouse constipation model = test: Loperamide-induced mouse constipation model (bead discharge time); type: in vivo; conditions: loperamide 0.3 mg/kg s.c., 0.01 to 1 mg/kg oral
Description: Because loperamide, a μ opioid receptor agonist, induces convulsive contraction in the gut and causes a delay of gut transportation, this experimental system is thought to be an experimental model of constipation type irritable bowel syndrome.
Mice (ddY, male, 5-week-old, SLC) were fasted from afternoon of the day before the experiment; on the day of the experiment, the mice were acclimated to the measurement cage for 1 hour or more, after which loperamide, 0.3 mg/kg, was administered subcutaneously. […] The mouse was returned to the measurement cage, and time from awakening to discharge of the glass beads was measured.

RIN14B cells [3] = test: Serotonin secretion from RIN14B cells (immunoassay); type: cell-based, rat; conditions: 20 minutes culture
Description: After RIN14B cells in culture in a Petri dish were detached using a PBS containing 1 mM EDTA, they were sown to a 96-well plate and cultured for 2 days. The medium used was RPMI1640 (Invitrogen Japan K.K.) supplemented with 10% fetal bovine serum (ICN), 100 U/ml penicillin, and 100 μg/ml streptomycin. After the cells were once washed with Hanks' Balanced Salt Solutions (HBSS, Invitrogen) supplemented with 0.1% BSA and 10 μM fluoxetine (TOCRIS), each TRPA1 activator, previously diluted/prepared with the above-described HBSS, was added, and the RIN14B cells were cultured at 37° C. in the presence of 5% CO2 for 20 minutes. After the cultivation, the cell supernatant was recovered, and stored under freezing. The serotonin content in the supernatant was measured using a commercially available serotonin immunoassay kit (Beckman).

rat EC cells = test: Serotonin secretion from rat small intestine EC cells; type: cell-based; conditions: 45 minutes culture
Description: A Wistar rat (male, 8-week-old) was decapitated and exsanguinated, after which it was dissected and laparotomized with scissors, and the small intestine was extirpated. The inside of the lumen of the extirpated small intestine was washed with physiological saline, and about 20 mL of Buffer A (70 mM NaCl, 5 mM KCl, 20 mM NaHCO3, 0.5 mM NaH2PO4, 50 mM HEPES (pH 7.2), 11 mM glucose, 3 mM EDTA, 0.5% BSA, 0.05 mM dithiothreitol, 1 mg/mL N-acetyl-L-cysteine) was injected, after which both ends were closed, and the small intestine was allowed to stand in 37° C. incubated HBSS for 10 minutes. Thereafter, the Buffer A in the lumen of the small intestine was discarded, about 20 mL of Buffer A was injected again, and the small intestine was allowed to stand in 37° C. incubated HBSS for 10 minutes. Again, the Buffer A in the lumen of the small intestine was discarded, fresh Buffer A was injected, and the small intestine was allowed to stand in 37° C. incubated HBSS for 20 minutes, after which the lumen content was recovered. […]
Serotonin secretion activity in EC cells prepared by the method described in Example 9-(3) was measured by a method modified from the method of Example 14 above. […]
The serotonin content in the supernatant was measured using a commercially available serotonin immunoassay kit (Beckman). […]

[4] = system: CHO-K1 cells not expressing the polypeptide shown by SEQ ID NO:2; test: Intracellular calcium by FLIPR in negative control CHO-K1 cells; type: cell-based; conditions: CHO-K1 cells not expressing TRPA1
[5] = system: mouse ileum loop water secretion; test: Mouse gut water secretion (ileum loop); type: in vivo; conditions: 6 hours; for water secretion from the gut: mouse ileum loop, 10, 100, 1,000 μg
Description: Mice (ddy, male, 35-42 g, SLC), fasted overnight, were anesthetized with pentobarbital (50 mg/kg i.p.) and laparotomized, and ileum tissue about 2 cm in the vicinity of the cecum was ligated with a thread at both ends to prepare an ileum loop. […] After the administration, the gut was returned to the original position, and the abdominal muscle and the skin were sutured. Six hours after the treatment, each mouse was killed by cervical dislocation, after which the ileum loop was extirpated, and the content was weighed.

SMILES: C=CCN=C=S [allyl isothiocyanate]
- change in intracellular calcium concentration [1]: responded specifically (elevation of intracellular calcium concentration)
- elevation of fluorescence intensity (calcium inflow) in RIN14B cells (RIN14B cells [2]): an elevation of fluorescence intensity was detected
- bead discharge time (mouse constipation model): dose-dependently ameliorated the delay of bead discharge time by loperamide; also recorded: concentration-dependently shortened bead discharge time compared to the vehicle control
- serotonin secretion from RIN14B cells (RIN14B cells [3]): serotonin secretion was promoted; also recorded: concentration-dependently promoted the release of serotonin
- serotonin secretion from rat EC cells (rat EC cells): significant serotonin secretion promoting activity was observed; also recorded: promoted the release of serotonin from the EC cells
- elevation of fluorescence intensity in negative control cells [4]: none of these compounds produced an elevation of fluorescence intensity
- water secretion accentuating action, 1,000 μg dose group ([5]; mouse ileum loop, 1,000 μg): significant water secretion accentuating action observed
- water secretion from the gut [5]: dose-dependently accentuated water secretion from the gut
- water secretion from the gut ([5]; listed as Allyl isothiocyanate): concentration-dependently accentuated water secretion compared to the vehicle control
